Test results from US4371523A, “Reducing the aggregation of insulin in solution” (The Regents of the University of California, priority 1980, dated 1983).
Entries after “also recorded” stand apart in the source; their conditions may differ.

Columns and labels:
[1] = biological target: T1, single component neutral pork zinc insulin (Sus scrofa, UniProt P01315); assay: Controlled shaking of zinc insulin solutions in test tubes, optical density at 600 nm; assay type: physicochemical; conditions: for Optical Density ± 1 × SE: zinc insulin 50 U/ml, OD at 600 nm
T1 construct: single component, neutral, pork, zinc-insulin (U.500 regular Iletin II., Eli Lilly & Company); purchased Eli Lilly & Company U.500 regular Iletin II
T1 sequence (P01315 25-54 limits assumed): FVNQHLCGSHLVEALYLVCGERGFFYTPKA
T1 sequence (P01315 88-108 limits assumed): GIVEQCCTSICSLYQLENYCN
Procedure: In vitro testing of single component neutral pork zinc insulin was undertaken with a number of added agents. Solutions at about neutral pH and at acid pH were tested. In addition, some testing was also undertaken with Na insulin.
The tests were conducted using plastic tybes (5 ml test tubes, Sarstedt, sealed by plastic caps covered with paraffin) each containing 2 ml of the insulin solutions noted below. The tubes were continuously agitated in a metabolic shaking incubator (Dubnoff E.C.A. Co.) at 60 to 80 r.p.m. and 37° C. for periods up to sixteen days.
The zinc insulin solutions were prepared by appropriate dilutions of highly concentrated (500 U/ml) single component, neutral, pork, zinc-insulin (U.500 regular Iletin II., Eli Lilly & Company). The unbuffered diluting fluid contained glycerin, 16 mg/ml, and phenol, 2 mg/ml of distilled water (Eli Lilly & Company). […] Final insulin concentration in all solutions was 50 U/ml (2 mg/ml).
Insulin solutions with amino acid added were prepared by addition of the dry amino acids (Sigma Company) to the neutral zinc or sodium insulin solutions. Final concentration of the amino acid additives was 7 mg per ml of insulin solution. pH was adjusted, when necessary, to 7.5 for neutral insulin mixtures and to 3.3-3.5 for acid insulin mixtures.
Several non-amino carboxylic acids, i.e., lactic acid, acetic acid, and citric acid, were added under the same conditions of concentration and pH as described for the amino acids.
The various insulin solutions, both as made up without additives and with additives, were shaken as noted above for up to sixteen days, at which time the solutions were examined with an optical densitometer at a wave length 600 nm. The optical density (OD) of each solution was an indication of the amount of aggregation present after the shaking period. The higher the optical density, the greater the aggregation in that solution.

pork sodium-insulin = biological target: T2, pork sodium-insulin (Sus scrofa, UniProt P01315); assay: Controlled shaking of Na insulin solutions in test tubes, optical density at 600 nm; assay type: physicochemical; conditions: for Optical Density ± 1 × SE: Na insulin 50 U/ml, OD at 600 nm
T2 construct: pork sodium-insulin crystals (U.1000 neutral sodium insulin special pork obtained from Eli Lilly & Company); purchased Eli Lilly & Company U.1000 neutral sodium insulin special pork
T2 sequence (P01315 25-54 limits assumed): as the sequence (P01315 25-54 limits assumed) above
Procedure: In vitro testing of single component neutral pork zinc insulin was undertaken with a number of added agents. Solutions at about neutral pH and at acid pH were tested. In addition, some testing was also undertaken with Na insulin. The tests were conducted using plastic tybes (5 ml test tubes, Sarstedt, sealed by plastic caps covered with paraffin) each containing 2 ml of the insulin solutions noted below. The tubes were continuously agitated in a metabolic shaking incubator (Dubnoff E.C.A. Co.) at 60 to 80 r.p.m. and 37° C. for periods up to sixteen days. The sodium insulin solutions were made by dissolving pork sodium-insulin crystals (U.1000 neutral sodium insulin special pork obtained from Eli Lilly & Company) in the same diluting fluid as utilized with the zinc insulin. The solutions were adjusted to neutral or acid pH as indicated above. Final insulin concentration in all solutions was 2 mg/ml (50 U/ml). Insulin solutions with amino acid added were prepared by addition of the dry amino acids (Sigma Company) to the neutral zinc or sodium insulin solutions. Final concentration of the amino acid additives was 7 mg per ml of insulin solution. pH was adjusted, when necessary, to 7.5 for neutral insulin mixtures and to 3.3-3.5 for acid insulin mixtures. The various insulin solutions, both as made up without additives and with additives, were shaken as noted above for up to sixteen days, at which time the solutions were examined with an optical densitometer at a wave length 600 nm. The optical density (OD) of each solution was an indication of the amount of aggregation present after the shaking period. The higher the optical density, the greater the aggregation in that solution.

insulin = conditions: supplemental material added to insulin solution; cited from earlier work
[2] = agent added to insulin solution at acid pH 3.3-3.5
[3] = pH 3.3-3.5, shaken 16 days at 37° C.
[4] = pH 7.4, shaken 16 days at 37° C., higher OD = greater aggregation

| Compound | Protective effect against insulin aggregation (in words) [1, 2] | Optical Density ± 1 × SE [1, 4] | further results |
| --- | --- | --- | --- |
| CC(=O)O [Acetic Acid] | do not prevent aggregation; also recorded: a comparable protective effect was not noted |  | Protective effect against insulin aggregation (in words) ([1]; agent added to insulin solution at acid pH 3.3-3.5, listed as acetate): exacerbate aggregation |
| C[C@H](N)C(=O)O [Alanine] | no protective effect was noted | 0.84 ± 0.04 | Optical Density ± 1 × SE [1, 3]: 0.41 ± 0.02 |
| N=C(N)NCCC[C@H](N)C(=O)O [Arginine] | no protective effect was noted | 0.074 ± 0.03 | Observation of the solution after shaking ([1]; zinc insulin, pH 7.4, 16 days): Gel formed |
| NC(=O)C[C@H](N)C(=O)O [Asparagine] | no protective effect was noted | 0.87 ± 0.13 |  |
| N[C@@H](CC(=O)O)C(=O)O [Aspartic Acid] |  | 0.51 ± 0.078 | Protective effect against insulin aggregation (in words) ([1]; agent added to insulin solution at acid pH 3.3-3.5, listed as Aspartic acid): more effective than glutamic acid; also recorded: particularly effective in protecting insulin solutions from aggregation; Protective effect against insulin aggregation (in words) ([1]; agent added to insulin solution at acid pH 3.3-3.5, listed as aspartic acid): prevented the development of any appreciable aggregation throughout the entire experiment; Protective effect against insulin aggregation (in words) ([1]; agent added to insulin solution at neutral pH (about pH 7, pH 7.4)): do not offer any effective protection; also recorded: the protective effect of the agents are no longer apparent; Optical Density ± 1 × SE [1, 3]: 0.084 ± 0.009; Optical Density ± 1 × SE (pork sodium-insulin; pH 3.5, shaken at 37° C.): 0.10 ± 0.01; Protective effect on Na insulin solutions (in words) (pork sodium-insulin; acid pH): some protective effect |
| O=C(O)CC(O)(CC(=O)O)C(=O)O [Citric Acid] | do not prevent aggregation; also recorded: a comparable protective effect was not noted |  | Protective effect against insulin aggregation (in words) ([1]; agent added to insulin solution at acid pH 3.3-3.5, listed as citrate): exacerbate aggregation |
| N[C@@H](CS)C(=O)O [Cysteine] |  | 0.34 ± 0.13 | Optical Density ± 1 × SE [1, 3]: 0.39 ± 0.08; Effect in preventing the aggregation of insulin in solution over extended periods of time (insulin): do not appear to have any appreciable effect |
| N[C@@H](CCC(=O)O)C(=O)O [Glutamic Acid] |  | 0.717 ± 0.266 | Protective effect against insulin aggregation (in words) ([1]; agent added to insulin solution at acid pH 3.3-3.5, listed as Glutamic acid): prevented the development of any appreciable aggregation throughout the entire experiment; Protective effect against insulin aggregation (in words) ([1]; agent added to insulin solution at acid pH 3.3-3.5, listed as glutamic acid): particularly effective in protecting insulin solutions from aggregation; Protective effect against insulin aggregation (in words) ([1]; agent added to insulin solution at neutral pH (about pH 7, pH 7.4), listed as Glutamic acid): do not offer any effective protection; Protective effect against insulin aggregation (in words) ([1]; agent added to insulin solution at neutral pH (about pH 7, pH 7.4), listed as glutamic acid): the protective effect of the agents are no longer apparent; Optical Density ± 1 × SE [1, 3]: 0.123 ± 0.02; Optical Density ± 1 × SE (pork sodium-insulin; pH 3.5, shaken at 37° C.): 0.13 ± 0.03 |
| NC(=O)CC[C@H](N)C(=O)O [Glutamine] | no protective effect was noted | 0.68 ± 0.03 |  |
| NCC(=O)O [Glycine] | no protective effect was noted | 0.66 ± 0.095 | Optical Density ± 1 × SE [1, 3]: 0.28 ± 0.04; Effect in preventing the aggregation of insulin in solution over extended periods of time (insulin): do not appear to have any appreciable effect |
| N[C@@H](Cc1c[nH]cn1)C(=O)O [Histidine] | no protective effect was noted | 0.245 ± 0.08 | Effect in preventing the aggregation of insulin in solution over extended periods of time (insulin): do not appear to have any appreciable effect |
| CC(O)C(=O)O (centres unmarked) [Lactic Acid] | do not prevent aggregation; also recorded: a comparable protective effect was not noted |  | Protective effect against insulin aggregation (in words) ([1]; agent added to insulin solution at acid pH 3.3-3.5, listed as lactate): exacerbate aggregation |
| CC(C)C[C@H](N)C(=O)O [Leucine] | no protective effect was noted | 0.695 ± 0.03 |  |
| NCCCC[C@H](N)C(=O)O [Lysine] | no protective effect was noted | 0.25 ± 0.08 | Optical Density ± 1 × SE [1, 3]: 0.35 ± 0.13 |
| CSCC[C@H](N)C(=O)O [Methionine] | no protective effect was noted | 0.74 ± 0.22 |  |
| O=C(O)[C@@H]1CCCN1 [Proline] | no protective effect was noted | 0.665 ± 0.21 |  |
| N[C@@H](CO)C(=O)O [Serine] | no protective effect was noted | 0.89 ± 0.02 |  |
| C[C@@H](O)[C@H](N)C(=O)O [Threonine] | no protective effect was noted | 0.76 ± 0.02 |  |
| N[C@@H](Cc1c[nH]c2ccccc12)C(=O)O [Tryptophane] | no protective effect was noted | 0.585 ± 0.200 |  |
| CC(C)[C@H](N)C(=O)O [Valine] | no protective effect was noted | 0.64 ± 0.26 |  |
| OCc1ccccc1 [benzol alcohol] |  |  | Effect in preventing the aggregation of insulin in solution over extended periods of time (insulin): do not appear to have any appreciable effect |
| N[C@@H](CSSC[C@H](N)C(=O)O)C(=O)O [cystine] | no protective effect was noted |  |  |
| O=C(O)CN(CCN(CC(=O)O)CC(=O)O)CC(=O)O [ethylene diamine tetraacetic acid] |  |  | Effect in preventing the aggregation of insulin in solution over extended periods of time (insulin): do not appear to have any appreciable effect |
| Cl [hydrochloric acid] | a comparable protective effect was not noted |  |  |
| O=C([O-])O.[Na+] [sodium bicarbonate] |  |  | Effect in preventing the aggregation of insulin in solution over extended periods of time (insulin): do not appear to have any appreciable effect |
| [Cl-].[Na+] [sodium chloride] |  |  | Effect in preventing the aggregation of insulin in solution over extended periods of time (insulin): do not appear to have any appreciable effect |
| O=P(O)(O)O [sodium phosphate] |  |  | Effect in preventing the aggregation of insulin in solution over extended periods of time (insulin): do not appear to have any appreciable effect |
| Na Insulin: pork sodium-insulin crystals (U.1000 neutral sodium insulin special pork, Eli Lilly & Company) in solution, no agent added |  |  | Optical Density ± 1 × SE (pork sodium-insulin; pH 3.5, shaken at 37° C.): 0.128 ± 0.02; Optical Density ± 1 × SE (pork sodium-insulin; pH 7.4, shaken at 37° C.): 0.18 ± 0.02; Aggregation of Na insulin (in words) (pork sodium-insulin; pH 3.3-3.5): less than at pH 7.4 but is nevertheless appreciable; Aggregation of Na insulin (in words) (pork sodium-insulin; pH 7.4, by 16 days): also aggregates; also recorded: aggregation is less than that seen for neutral zinc insulin at the same pH |
